Experimental data from ChEMBL document CHEMBL3098003, “Structure-based design of 2-aminopyridine oxazolidinones as potent and selective tankyrase inhibitors” (ACS Med Chem Lett, 2013).
Activity calls are given as the source filed them. No cut-off for these calls is given here.

Legend:
[1] = test system: Mus musculus; assay: In vivo inhibition of tankyrase-mediated Wnt gene transcription in tumor of athymic nude mouse xenografted with human DLD1 cells at 200 mg/kg, po bid for 3 days by STF assay; type: functional, organism-based; parameters: dose 200 mg/kg; conditions: DLD-1
[2] = target: T1, Tankyrase 1/2 (Homo sapiens, UniProt Q9H2K2+O95271); assay: Inhibition of tankyrase in human DLD1 cells assessed as inhibition of Wnt gene transcription after 40 to 48 hrs by STF assay; type: cell-based; conditions: dld-1
T1 sequence (Q9H2K2 whole entry): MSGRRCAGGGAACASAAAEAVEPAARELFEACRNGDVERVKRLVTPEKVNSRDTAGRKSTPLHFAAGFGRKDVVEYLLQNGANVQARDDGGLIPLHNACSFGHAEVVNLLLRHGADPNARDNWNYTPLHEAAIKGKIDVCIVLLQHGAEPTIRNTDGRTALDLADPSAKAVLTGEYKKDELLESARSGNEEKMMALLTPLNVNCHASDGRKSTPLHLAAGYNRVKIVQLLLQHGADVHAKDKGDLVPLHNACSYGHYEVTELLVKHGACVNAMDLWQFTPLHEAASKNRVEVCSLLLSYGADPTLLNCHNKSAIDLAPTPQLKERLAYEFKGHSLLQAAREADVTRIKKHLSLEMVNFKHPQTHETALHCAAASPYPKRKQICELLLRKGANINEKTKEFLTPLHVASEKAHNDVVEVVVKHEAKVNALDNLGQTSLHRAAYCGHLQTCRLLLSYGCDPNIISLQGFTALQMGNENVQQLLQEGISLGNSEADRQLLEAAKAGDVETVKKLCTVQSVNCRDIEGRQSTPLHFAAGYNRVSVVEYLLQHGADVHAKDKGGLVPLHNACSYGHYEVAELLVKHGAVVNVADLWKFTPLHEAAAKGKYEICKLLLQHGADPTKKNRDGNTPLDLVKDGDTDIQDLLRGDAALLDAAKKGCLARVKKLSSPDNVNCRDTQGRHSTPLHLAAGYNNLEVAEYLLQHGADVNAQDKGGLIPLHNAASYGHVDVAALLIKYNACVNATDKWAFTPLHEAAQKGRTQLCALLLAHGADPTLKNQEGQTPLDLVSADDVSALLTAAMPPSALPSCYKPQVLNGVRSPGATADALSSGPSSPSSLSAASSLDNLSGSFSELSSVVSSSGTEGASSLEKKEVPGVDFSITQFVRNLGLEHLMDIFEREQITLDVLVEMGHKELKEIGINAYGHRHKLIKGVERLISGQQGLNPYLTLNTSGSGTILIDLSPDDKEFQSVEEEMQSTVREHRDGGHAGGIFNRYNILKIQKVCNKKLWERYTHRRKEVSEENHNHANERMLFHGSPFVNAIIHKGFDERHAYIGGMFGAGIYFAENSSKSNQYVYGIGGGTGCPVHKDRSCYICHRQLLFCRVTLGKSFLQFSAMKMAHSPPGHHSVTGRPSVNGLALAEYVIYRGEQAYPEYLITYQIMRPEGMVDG
T1 sequence (O95271 whole entry): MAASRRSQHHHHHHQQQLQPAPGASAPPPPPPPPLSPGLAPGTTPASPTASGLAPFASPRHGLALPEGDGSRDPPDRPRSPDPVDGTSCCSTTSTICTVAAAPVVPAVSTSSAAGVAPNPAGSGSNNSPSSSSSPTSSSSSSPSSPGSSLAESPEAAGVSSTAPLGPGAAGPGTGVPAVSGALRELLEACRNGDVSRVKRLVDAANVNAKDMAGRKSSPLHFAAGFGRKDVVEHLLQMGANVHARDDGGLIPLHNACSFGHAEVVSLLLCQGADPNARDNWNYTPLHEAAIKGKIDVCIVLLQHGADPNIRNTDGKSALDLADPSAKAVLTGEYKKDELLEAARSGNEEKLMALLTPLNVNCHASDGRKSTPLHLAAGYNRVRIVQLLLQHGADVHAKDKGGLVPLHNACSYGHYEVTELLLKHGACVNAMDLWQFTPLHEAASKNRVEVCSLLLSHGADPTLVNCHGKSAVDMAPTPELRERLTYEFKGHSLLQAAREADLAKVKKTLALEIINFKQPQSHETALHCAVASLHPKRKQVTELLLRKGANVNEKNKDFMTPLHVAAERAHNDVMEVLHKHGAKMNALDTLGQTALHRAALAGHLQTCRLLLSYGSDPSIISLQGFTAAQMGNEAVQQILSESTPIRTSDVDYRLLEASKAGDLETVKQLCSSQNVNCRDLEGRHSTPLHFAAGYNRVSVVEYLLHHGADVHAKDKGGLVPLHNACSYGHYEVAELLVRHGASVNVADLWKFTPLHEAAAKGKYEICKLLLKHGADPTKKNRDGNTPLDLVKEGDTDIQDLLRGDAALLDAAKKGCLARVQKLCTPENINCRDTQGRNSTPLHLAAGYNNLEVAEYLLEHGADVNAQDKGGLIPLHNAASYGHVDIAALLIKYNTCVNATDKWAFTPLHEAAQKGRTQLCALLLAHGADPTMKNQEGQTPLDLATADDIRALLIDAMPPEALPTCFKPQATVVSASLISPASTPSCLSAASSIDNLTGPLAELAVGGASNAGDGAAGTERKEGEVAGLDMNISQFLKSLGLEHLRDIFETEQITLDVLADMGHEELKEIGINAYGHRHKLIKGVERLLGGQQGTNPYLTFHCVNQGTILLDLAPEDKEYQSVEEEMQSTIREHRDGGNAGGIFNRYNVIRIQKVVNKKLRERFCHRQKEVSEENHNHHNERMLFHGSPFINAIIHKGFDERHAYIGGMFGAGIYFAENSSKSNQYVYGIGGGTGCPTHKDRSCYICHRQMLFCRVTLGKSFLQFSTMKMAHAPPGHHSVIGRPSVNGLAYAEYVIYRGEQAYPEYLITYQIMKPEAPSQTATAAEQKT

[3] = target: C-C chemokine receptor type 2 (Homo sapiens, UniProt P41597); assay: Binding affinity to CCR2 (unknown origin)
C-C chemokine receptor type 2, sequence (P41597 whole entry): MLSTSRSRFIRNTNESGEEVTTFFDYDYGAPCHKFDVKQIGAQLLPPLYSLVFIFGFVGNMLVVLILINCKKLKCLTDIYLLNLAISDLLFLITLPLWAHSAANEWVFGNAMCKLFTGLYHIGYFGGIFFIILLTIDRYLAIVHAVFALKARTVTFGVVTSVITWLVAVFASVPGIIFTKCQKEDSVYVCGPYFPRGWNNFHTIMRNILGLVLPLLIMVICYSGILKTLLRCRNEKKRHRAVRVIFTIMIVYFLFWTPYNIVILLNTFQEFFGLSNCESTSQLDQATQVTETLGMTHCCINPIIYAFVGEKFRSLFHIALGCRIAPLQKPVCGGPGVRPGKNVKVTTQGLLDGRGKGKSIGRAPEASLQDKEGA

[4] = target: D(2) dopamine receptor (Homo sapiens, UniProt P14416); assay: Binding affinity to dopamine D2 receptor (unknown origin)
D(2) dopamine receptor, sequence (P14416 whole entry): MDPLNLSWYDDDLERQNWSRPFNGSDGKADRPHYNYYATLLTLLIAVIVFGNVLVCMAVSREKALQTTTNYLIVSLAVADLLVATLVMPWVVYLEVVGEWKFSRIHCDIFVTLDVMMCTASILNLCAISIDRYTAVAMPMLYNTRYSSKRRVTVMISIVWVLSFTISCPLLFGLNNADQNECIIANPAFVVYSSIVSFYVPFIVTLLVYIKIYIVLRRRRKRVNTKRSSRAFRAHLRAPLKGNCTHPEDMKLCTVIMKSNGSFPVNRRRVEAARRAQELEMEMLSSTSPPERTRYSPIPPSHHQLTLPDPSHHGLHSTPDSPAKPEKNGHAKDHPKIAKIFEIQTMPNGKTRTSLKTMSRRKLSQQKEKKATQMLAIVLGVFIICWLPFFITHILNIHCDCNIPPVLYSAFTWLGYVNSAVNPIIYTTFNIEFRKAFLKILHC

[5] = target: Beta-1 adrenergic receptor (Homo sapiens, UniProt P08588); assay: Binding affinity to adrenergic beta1 receptor (unknown origin)
Beta-1 adrenergic receptor, sequence (P08588 whole entry): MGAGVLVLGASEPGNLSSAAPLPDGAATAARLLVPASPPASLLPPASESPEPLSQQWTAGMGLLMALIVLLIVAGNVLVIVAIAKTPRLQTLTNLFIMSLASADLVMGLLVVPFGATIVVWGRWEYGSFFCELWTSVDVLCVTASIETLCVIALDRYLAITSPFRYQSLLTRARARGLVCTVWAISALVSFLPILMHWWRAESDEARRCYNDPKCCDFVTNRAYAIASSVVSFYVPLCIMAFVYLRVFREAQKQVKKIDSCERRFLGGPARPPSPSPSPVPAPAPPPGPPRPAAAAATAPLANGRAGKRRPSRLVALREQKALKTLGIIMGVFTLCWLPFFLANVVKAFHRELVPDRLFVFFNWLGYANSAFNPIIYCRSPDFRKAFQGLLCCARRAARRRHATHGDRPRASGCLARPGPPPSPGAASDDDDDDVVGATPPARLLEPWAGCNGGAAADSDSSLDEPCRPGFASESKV

[6] = test system: Mus musculus; assay: Toxicity in athymic nude mouse assessed as dehydration at 100 mg/kg, po bid for 8 days; type: organism-based; parameters: dose 100 mg/kg, route oral; conditions: in vivo, 192 h
[7] = target: 5-hydroxytryptamine receptor 1A (Homo sapiens, UniProt P08908); assay: Binding affinity to 5-HT1A receptor (unknown origin)
5-hydroxytryptamine receptor 1A, sequence (P08908 whole entry): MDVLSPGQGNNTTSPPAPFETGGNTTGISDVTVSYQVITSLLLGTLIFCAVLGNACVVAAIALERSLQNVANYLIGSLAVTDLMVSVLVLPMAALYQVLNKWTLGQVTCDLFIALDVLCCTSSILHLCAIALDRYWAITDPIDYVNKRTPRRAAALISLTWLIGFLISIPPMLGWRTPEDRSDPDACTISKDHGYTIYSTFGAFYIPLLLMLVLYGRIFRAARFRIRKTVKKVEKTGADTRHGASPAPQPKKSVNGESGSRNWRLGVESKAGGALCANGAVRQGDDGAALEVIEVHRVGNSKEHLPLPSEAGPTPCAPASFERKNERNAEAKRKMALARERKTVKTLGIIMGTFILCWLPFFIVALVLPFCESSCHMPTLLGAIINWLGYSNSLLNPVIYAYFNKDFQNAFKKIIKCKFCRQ

[8] = target: Poly [ADP-ribose] polymerase tankyrase-2 (Homo sapiens, UniProt Q9H2K2); assay: Inhibition of recombinant TNKS2 (unknown origin) after 60 mins by spectrophotometric analysis
[9] = test system: Mus musculus; assay: Toxicity in athymic nude mouse assessed as lethargy at 100 mg/kg, po bid for 8 days; type: organism-based; parameters: dose 100 mg/kg, route oral; conditions: in vivo, 192 h

| SMILES | inhibition [1] | IC50 [2] | IC50 [3] | IC50 [4] | IC50 [5] | Activity [6] | IC50 [7] | IC50 [8] | Activity [9] |
| --- | --- | --- | --- | --- | --- | --- | --- | --- | --- |
| CC1(C)OC(=O)N(c2ccc(-c3cnc(N)c(-c4ncccn4)c3)cc2)[C@H]1c1ccccc1 | Active | 0.096 µM | – | – | – | – | – | – | – |
| CC1(C)OC(=O)N([C@H]2CC[C@H](c3cnc(N)c(-c4ncccn4)c3)CC2)[C@H]1c1ccccc1 | – | – | > 48.5 µM | > 48.5 µM | > 48.5 µM | Toxic | > 48.5 µM | 2 nM | Toxic |
